Reference: patent US20210179578A1, “OX1 ANTAGONISTS” (Heptares Therapeutics Limited, priority 2017, published 2021)
Read-outs that look alike come from different tables or passages of the source.

Columns and labels:
human OX2 receptor = target: T1, human OX2 receptor (Homo sapiens, UniProt O43614); assay: IPone accumulation assay, CHO cells expressing OX2 (antagonism of orexin A); type: cell-based; details: CHO human OX2, orexin A EC80 challenge (40 nM), read-out: fpKb average OX2 (converted)
T1 sequence (O43614 1-444): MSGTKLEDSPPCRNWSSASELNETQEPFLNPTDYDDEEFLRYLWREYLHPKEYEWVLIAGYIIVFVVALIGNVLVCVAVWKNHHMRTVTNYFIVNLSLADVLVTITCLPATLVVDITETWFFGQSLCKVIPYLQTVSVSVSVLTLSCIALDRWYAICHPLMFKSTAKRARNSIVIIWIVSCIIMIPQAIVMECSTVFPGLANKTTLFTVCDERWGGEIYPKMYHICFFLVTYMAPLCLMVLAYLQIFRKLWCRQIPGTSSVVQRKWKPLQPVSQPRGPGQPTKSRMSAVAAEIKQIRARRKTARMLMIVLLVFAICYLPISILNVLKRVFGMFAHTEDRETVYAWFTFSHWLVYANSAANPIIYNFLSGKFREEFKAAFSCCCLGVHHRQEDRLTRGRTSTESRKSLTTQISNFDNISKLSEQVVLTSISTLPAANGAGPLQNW
Method: Generation of CHO stable cell lines expressing the human OX1R and OX2R. Stable cell lines for the human OX1R and OX2R receptors were generated through the transfection of CHO cells using the transfection reagent Genejuice (Novagen number 70967) and cDNA coding for either the human OX1R or OX2R. Cells were cultured in Sigma Nutrient Mixture F-12 Ham media (catalog number N6658) supplemented with 10% heat-inactivated FBS. Forty-eight hours after transfection, cells were harvested and placed under geneticin selection by culturing in Sigma Nutrient Mixture F-12 Ham media supplemented with 10% heat-inactivated FBS and geneticin (ThermoFisher Catalog number: 10131035). Selection of the final stable clone for each receptor was made on the basis of receptor expression, assay signal to noise and robustness though increasing passage. Selected clones for the human OX1R and OX2R were then frozen down into liquid nitrogen using Cell Freezing Medium-DMSO (Sigma-Aldrich catalog number: C6164).
(§1) IPone accumulation assay. A CHO cell line stably expressing either human OX1 or OX2 receptor was used with the IPone HTRF assay kit (CisBio: Part #62IPAPEJ) to measure receptor activation. The assay was optimised to measure the ability (potency; fpKb) of antagonists to reduce agonist (orexin A)-induced inositol phosphate turnover. Briefly, cells were plated onto half area 96-well white walled plates at a density of 12,500 cells/well. Sixteen hours post-plating cell growth media was replaced with antagonist concentration-response curve diluted in stimulation buffer (supplied with the kit). Cells were incubated in a humidified incubator (37° C.) for 30 min before an EC80 challenge concentration (˜20 nM (OX1) and 40 nM (OX2)) of orexin A (Tocris catalogue number 1455). After 30 min stimulation in a humidified incubator (37° C.) the assay was terminated by the addition of detection mixture as per manufacturer's instructions. The concentration of compound which reduced orexin-A stimulated turnover of inositol phosphates by 50% (IC50) was calculated by fitting to a four parameter sigmoidal dose response curve. The IC50 values were converted to fpKB values using the orexin A pEC50 value estimated on each plate as well as the challenge concentration interpolated from the orexin A control curve.

human OX1 receptor = target: T2, human OX1 receptor (Homo sapiens, UniProt O43613); assay: IPone accumulation assay, CHO cells expressing OX1 (antagonism of orexin A); type: cell-based; details: CHO human OX1, orexin A EC80 challenge (~20 nM)
T2 sequence (O43613 1-425): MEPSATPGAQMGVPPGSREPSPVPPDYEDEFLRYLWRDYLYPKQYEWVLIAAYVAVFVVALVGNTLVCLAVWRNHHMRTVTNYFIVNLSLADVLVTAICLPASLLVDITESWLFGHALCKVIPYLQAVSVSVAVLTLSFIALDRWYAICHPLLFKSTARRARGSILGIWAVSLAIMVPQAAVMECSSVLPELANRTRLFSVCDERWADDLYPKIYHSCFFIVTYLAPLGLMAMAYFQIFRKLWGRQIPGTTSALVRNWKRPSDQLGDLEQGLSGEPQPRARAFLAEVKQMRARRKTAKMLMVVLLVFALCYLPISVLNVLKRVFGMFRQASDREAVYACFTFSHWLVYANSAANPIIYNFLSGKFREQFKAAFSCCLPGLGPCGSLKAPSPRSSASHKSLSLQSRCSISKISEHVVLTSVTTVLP
Method: as §1, with “Generation of CHO stable cell lines expressing the human OX1R and OX2R. Stable cell lines for the human OX1R and OX2R receptors were generated through the transfection of CHO cells using the transfection reagent Genejuice (Novagen number 70967) and cDNA coding for either the human OX1R or OX2R. Cells were cultured in Sigma Nutrient Mixture F-12 Ham media (catalog number N6658) supplemented with 10% heat-inactivated FBS. Forty-eight hours after transfection, cells were harvested and placed under geneticin selection by culturing in Sigma Nutrient Mixture F-12 Ham media supplemented with 10% heat-inactivated FBS and geneticin (ThermoFisher Catalog number: 10131035). Selection of the final stable clone for each receptor was made on the basis of receptor expression, assay signal to noise and robustness though increasing passage. Selected clones for the human OX1R and OX2R were then frozen down into liquid nitrogen using Cell Freezing Medium-DMSO (Sigma-Aldrich catalog number: C6164). IPone accumulation” for “IPone accumulation”, “(CisBio: Part #62[…]) to measure” for “(CisBio: Part #62IPAPEJ) to measure”, “challenge concentration ( 20 nM (OX1)” for “challenge concentration (˜20 nM (OX1)”

[1] = IPone accumulation, read-out: fpKb average OX1 (converted)

Kb (human OX2 receptor) | Kb (human OX1 receptor; [1]) | Structure (SMILES) | Kb (human OX1 receptor; fpKb average OX1, IPone accumulation)
> 3.98 µM | 7.94 nM | COCc1cc(F)c(CN2C(=O)N(c3cnc(OC)c(C(C)(F)F)c3)CCc3c(F)cccc32)c(F)c1 [Example 7, 3-[5-(1,1-difluoroethyl)-6-methoxypyridin-3-yl]-1-[2,6-difluoro-4-(methoxymethyl)benzyl]-6-fluoro-1,3,4,5-tetrahydro-2H-1,3-benzodiazepin-2-one] | –
> 0.316 µM | 3.16 nM | COc1cc(F)c(CN2C(=O)N(c3cnc(OC)c(C(C)(F)F)c3)CCc3c(F)cccc32)c(F)c1 [Example 8, 3-[5-(1,1-difluoroethyl)-6-methoxypyridin-3-yl]-1-(2,6-difluoro-4-methoxybenzyl)-6-fluoro-1,3,4,5-tetrahydro-2H-1,3-benzodiazepin-2-one] | –
> 3.16 µM | 25.1 nM | COc1ncc(N2CCc3c(F)cccc3N(Cc3c(F)cc(Cl)cc3F)C2=O)cc1C(C)(F)F [Example 9, 1-(4-chloro-2,6-difluorobenzyl)-3-[5-(1,1-difluoroethyl)-6-methoxypyridin-3-yl]-6-fluoro-1,3,4,5-tetrahydro-2H-1,3-benzodiazepin-2-one] | –
> 3.98 µM | 15.8 nM | COc1cc(F)c(CN2C(=O)N(c3cnc(OC)c(S(C)(=O)=O)c3)CCc3c(F)cccc32)c(F)c1 [Example 16, 1-(2,6-difluoro-4-methoxybenzyl)-6-fluoro-3-[6-methoxy-5-(methylsulfonyl)pyridin-3-yl]-1,3,4,5-tetrahydro-2H-1,3-benzodiazepin-2-one] | –
> 1.58 µM | 50.1 nM | COc1nc(OC)c(C(C)(F)F)cc1N1CCc2c(F)cccc2N(Cc2c(F)cc(Br)cc2F)C1=O [Example 23, 1-(4-bromo-2,6-difluorobenzyl)-3-[5-(1,1-difluoroethyl)-2,6-dimethoxypyridin-3-yl]-6-fluoro-1,3,4,5-tetrahydro-2H-1,3-benzodiazepin-2-one] | –

The next lines start with the compound.

Structure (SMILES) | Kb (human OX2 receptor) | Kb (human OX1 receptor; [1]) | Kb (human OX1 receptor; fpKb average OX1, IPone accumulation)
COc1ncc(N2CCc3c(F)cccc3N(Cc3ccc(Br)cc3F)C2=O)cc1C(C)(F)F [Example 10, 1-(4-bromo-2-fluorobenzyl)-3-[5-(1,1-difluoroethyl)-6-methoxypyridin-3-yl]-6-fluoro-1,3,4,5-tetrahydro-2H-1,3-benzodiazepin-2-one] | > 2.51 µM | 25.1 nM | –
COc1ncc(N2CCc3c(F)cccc3N(Cc3c(F)cc(Br)cc3F)C2=O)cc1S(C)(=O)=O [Example 14, 1-(4-bromo-2,6-difluorobenzyl)-6-fluoro-3-[6-methoxy-5-(methylsulfonyl)pyridin-3-yl]-1,3,4,5-tetrahydro-2H-1,3-benzodiazepin-2-one] | > 0.794 µM | 79.4 nM | –
COc1cc(F)c(CN2C(=O)N(c3cnc(OC)c(S(C)(=O)=O)c3)CCc3c(F)cccc32)c(F)c1F [Example 15, 6-fluoro-3-[6-methoxy-5-(methylsulfonyl)pyridin-3-yl]-1-(2,3,6-trifluoro-4-methoxybenzyl)-1,3,4,5-tetrahydro-2H-1,3-benzodiazepin-2-one] | > 3.16 µM | 126 nM | –
COc1ncc(N2CCc3c(F)cccc3N(Cc3c(C)cc(Br)cc3F)C2=O)cc1S(C)(=O)=O [Example 17, 1-(4-bromo-2-fluoro-6-methylbenzyl)-6-fluoro-3-[6-methoxy-5-(methylsulfonyl)pyridin-3-yl]-1,3,4,5-tetrahydro-2H-1,3-benzodiazepin-2-one] | > 2.51 µM | 10 nM | –
COc1ncc(N2CCc3c(F)cccc3N(Cc3c(C)cc(F)cc3F)C2=O)cc1S(C)(=O)=O [Example 18, 1-(2,4-difluoro-6-methylbenzyl)-6-fluoro-3-[6-methoxy-5-(methylsulfonyl)pyridin-3-yl]-1,3,4,5-tetrahydro-2H-1,3-benzodiazepin-2-one] | > 3.16 µM | 10 nM | –
COCc1cc(F)c(CN2C(=O)N(c3cc(C(C)(F)F)c(OC)nc3OC)CCc3c(F)cccc32)c(F)c1 [Example 24, 3-[5-(1,1-difluoroethyl)-2,6-dimethoxypyridin-3-yl]-1-[2,6-difluoro-4-(methoxymethyl)benzyl]-6-fluoro-1,3,4,5-tetrahydro-2H-1,3-benzodiazepin-2-one] | > 3.16 µM | 63.1 nM | –
COc1cc(F)c(CN2C(=O)N(c3cc(S(C)(=O)=O)c(OC)nc3OC)CCc3c(F)cccc32)c(F)c1 [Example 25, 1-(2,6-difluoro-4-methoxybenzyl)-3-[2,6-dimethoxy-5-(methylsulfonyl)pyridin-3-yl]-6-fluoro-1,3,4,5-tetrahydro-2H-1,3-benzodiazepin-2-one] | > 3.98 µM | 10 nM | –
CSc1cc(N2CCc3c(F)cccc3N(Cc3c(F)cc(Br)cc3F)C2=O)ccc1C [Example 26, 1-(4-bromo-2,6-difluorobenzyl)-6-fluoro-3-[4-methyl-3-(methylsulfanyl)phenyl]-1,3,4,5-tetrahydro-2H-1,3-benzodiazepin-2-one] | > 0.794 µM | – | 50.1 nM
Cc1ccc(N2CCc3c(F)cccc3N(Cc3c(F)cc(Br)cc3F)C2=O)cc1S(C)(=O)=O [Example 27, 1-(4-bromo-2,6-difluorobenzyl)-6-fluoro-3-[4-methyl-3-(methylsulfonyl)phenyl]-1,3,4,5-tetrahydro-2H-1,3-benzodiazepin-2-one] | > 3.16 µM | 126 nM | –
CCCc1cc(F)c(CN2C(=O)N(c3ccc(C)c(S(C)(=O)=O)c3)CCc3c(F)cccc32)c(F)c1 [Example 28, 1-(2,6-difluoro-4-propylbenzyl)-6-fluoro-3-[4-methyl-3-(methylsulfonyl)phenyl]-1,3,4,5-tetrahydro-2H-1,3-benzodiazepin-2-one] | > 3.98 µM | 79.4 nM | –
Cc1cc(C)c(S(C)(=O)=O)cc1N1CCc2ccccc2N(Cc2c(F)cc(Br)cc2F)C1=O [Example 29, 1-(4-bromo-2,6-difluorobenzyl)-3-[2,4-dimethyl-5-(methylsulfonyl)phenyl]-1,3,4,5-tetrahydro-2H-1,3-benzodiazepin-2-one] | 0.398 µM | 39.8 nM | –
